Assay results from patent US20220218732A1, “Selective Inhibitors Of Protein Arginine Methyltransferase 5 (PRMT5)” (Prelude Therapeutics, Incorporated, priority 2019, published 2022).
Counter-ions that a name gives are not always drawn. Like-named read-outs stand apart in the source and are kept apart here.

Legend:
[1] = system: Symmetric Di-Methyl Arginine (sDMA) marks in Granta-519 cell line; test: Cellular assay: Western blot of sDMA (SmD3me2s) and H3R8me2s marks in Granta cells, 3 days, IC50; type: cell-based; settings: Homo sapiens, 72 h, Table 7
PRMT5/MEP50 complex = PRMT5/MEP50 complex (Homo sapiens, UniProt O14744); test: Biochemical assay: PRMT5/MEP50 methylation of histone H2A with 3H-SAM, filter plate scintillation
Description: Compounds were solubilized, and 3-fold diluted in 100% DMSO. […] Standard reactions were performed in a total volume of 50 μl in assay buffer, with histone H2A (5 μM final) as substrate. To this was added the PRMT5/MEP50 complex diluted to provide a final assay concentration of 5 nM and the compounds were allowed to preincubate for 15 to 20 minutes at room temperature. The reaction was initiated by adding S-[3H-methyl]-adenosyl-L-methionine (PerkinElmer) to final concentration of 1 μM. Following a 60 minutes incubation at 30° C., the reaction was stopped by adding 100 μL of 20% TCA. Each reaction was spotted onto filter plate (MultiScreen FB Filter Plate, Millipore), and washed 5 times with PBS buffer, Scintillation fluid was added to the filter plate and read in a scintillation counter. IC50 values were determined by fitting the data to the standard 4 parameters with Hill Slope using GraphPad Prism software.

[2] = Rat non-crossover PK study of Example 92; type: in vivo
Description: In a rat (SD, male, non-fasted) non-crossover PK study, Example 92 was dosed at 1 mg/kg (DMA: 20% HPBCD=5:95, solution) via i.v. administration (N=2) and 1 mg/kg (0.5% Na CMC+0.5% Tween80, solution) via oral gauge (p.o.) (N=2).

[3] = Rat non-crossover cassette PK study of Example 36; type: in vivo; settings: rat SD male non-fasted, 2 mg/kg p.o.
Description: In a rat (SD, male, non-fasted) non-crossover cassette PK study, Example 36 was dosed at 0.25 mg/kg via i.v. administration (N=3) and 2 mg/kg via oral gauge (p.o.) (N=3) with other 3 compounds.

[4] = system: Type II Collagen-Induced Arthritis (CIA) in female Lewis rats; test: Rat type II collagen-induced arthritis (CIA) model; type: in vivo; settings: 15 mg/kg PO QD
Description: Female Lewis rats were injected intradermally/subcutaneously (ID/SC) with porcine type II collagen to induce arthritis on Study Days 0 & 7. Rats were then dosed once daily (QD) on Study Days 0-24 (developing) or Days 6-24 (semi-established) by the oral (PO) route with Example 92 (15 mg/kg) or vehicle (0.5% Na CMC+0.5% Tween80, suspension). Rats were euthanized for necropsy on Study Day 25. Efficacy evaluation was based daily ankle diameter caliper measurements, terminal hind paw weights, and histopathology of ankles and knees.

[5] = developing mode (Days 0-24), P<0.001

Sequence of PRMT5/MEP50 complex (O14744 whole entry, species assumed): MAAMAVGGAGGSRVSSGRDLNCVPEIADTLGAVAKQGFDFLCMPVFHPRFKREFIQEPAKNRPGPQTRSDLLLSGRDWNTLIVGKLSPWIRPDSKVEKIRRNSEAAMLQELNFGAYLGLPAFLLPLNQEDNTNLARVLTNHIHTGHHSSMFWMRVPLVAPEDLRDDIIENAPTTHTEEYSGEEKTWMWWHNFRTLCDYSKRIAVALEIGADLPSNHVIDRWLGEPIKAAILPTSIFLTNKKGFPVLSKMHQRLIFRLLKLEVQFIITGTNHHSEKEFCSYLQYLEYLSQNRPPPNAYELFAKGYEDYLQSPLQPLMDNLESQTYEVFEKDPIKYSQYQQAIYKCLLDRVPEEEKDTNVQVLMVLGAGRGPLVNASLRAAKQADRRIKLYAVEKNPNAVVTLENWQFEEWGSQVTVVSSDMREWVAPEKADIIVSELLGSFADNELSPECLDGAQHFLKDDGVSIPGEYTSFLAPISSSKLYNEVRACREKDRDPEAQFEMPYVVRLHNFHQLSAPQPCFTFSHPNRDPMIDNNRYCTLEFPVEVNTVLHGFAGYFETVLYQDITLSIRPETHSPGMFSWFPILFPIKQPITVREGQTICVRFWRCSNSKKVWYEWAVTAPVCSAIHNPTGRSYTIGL
Sequence of PRMT5/MEP50 complex (Q9BQA1 whole entry partner, species assumed): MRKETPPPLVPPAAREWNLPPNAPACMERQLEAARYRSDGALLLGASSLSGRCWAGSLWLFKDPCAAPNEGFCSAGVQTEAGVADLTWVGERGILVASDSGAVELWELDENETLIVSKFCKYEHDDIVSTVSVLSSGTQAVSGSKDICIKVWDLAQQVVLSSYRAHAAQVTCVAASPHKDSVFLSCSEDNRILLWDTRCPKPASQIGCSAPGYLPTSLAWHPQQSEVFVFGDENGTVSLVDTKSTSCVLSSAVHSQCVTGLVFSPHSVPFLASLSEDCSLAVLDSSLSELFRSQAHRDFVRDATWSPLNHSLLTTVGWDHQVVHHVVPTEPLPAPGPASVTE

CO/N=c1\nc[nH]c2c1ccn2[C@@H]1O[C@H]([C@H](O)c2ccc(Cl)c(Cl)c2)[C@@H](O)[C@H]1O [Example 69, 7-((2R,3R,4S,5R)-5-((R)-(3,4-dichlorophenyl)(hydroxy)methyl)-3,4-dihydroxytetrahydrofuran-2-yl)-1,7-dihydro-4H-pyrrolo[2,3-d]pyrimidin-4-one O-methyl oxime hydrochloride]
IC50 [1]: 28 nM

CCO/N=c1\nc[nH]c2c1ccn2[C@@H]1OC([C@](C)(O)c2ccc(Cl)cc2)[C@@H](O)[C@H]1O (stereo partly drawn) [Example 83, 7-((2R,3R,4S)-5-((R)-1-(4-chlorophenyl)-1-hydroxyethyl)-3,4-dihydroxytetrahydrofuran-2-yl)-1,7-dihydro-4H-pyrrolo[2,3-d]pyrimidin-4-one O-ethyl oxime]
IC50 (PRMT5/MEP50 complex; Table 7, histone H2A substrate, 5 nM enzyme, read-out: PRMT5/MEP50 IC50): 29.1 nM
IC50 [1]: 97 nM

C[C@@](O)(c1ccc(Cl)c(Cl)c1)[C@H]1O[C@@H](n2cnc3c(N)ncnc32)[C@H](O)[C@@H]1O [Example 1-C, (2R,3R,4S,5S)-2-(6-amino-9H-purin-9-yl)-5-((R)-1-(3,4-dichlorophenyl)-1-hydroxyethyl)tetrahydrofuran-3,4-diol]
metabolite in blood samples ([2]; rat, after dosing of Example 92): detected
average of AUC0-int of metabolite ([2]; rat, metabolite after dosing of Example 92): 284 ng·kg·h/mL/mg

CO/N=c1/nc[nH]c2c1ccn2[C@@H]1O[C@H]([C@H](O)c2ccc(Cl)cc2)[C@@H](O)[C@H]1O [Example 36, (2R,3S,4R,5R)-2-[(R)-(4-chlorophenyl)-hydroxy-methyl]-5-(-4-methoxyimino-1H-pyrrolo[2,3-d]pyrimidin-7-yl]tetrahydrofuran-3,4-diol]
average dose normalized AUC [3]: 1738 ng·kg·h/mL/mg

CO/N=c1\[nH]cnc2c1ncn2[C@@H]1O[C@H]([C@](C)(O)c2ccc(Cl)c(Cl)c2)[C@@H](O)[C@H]1O [Example 92, (2S,3S,4R,5R)-2-[(1R)-1-(3,4-dichlorophenyl)-1-hydroxy-ethyl]-5-[(6Z)-6-methoxyimino-1H-purin-9-yl]tetrahydrofuran-3,4-diol]
histopathology parameters in ankles and knees ([4]; both modes, versus vehicle controls): significantly inhibited all histopathology parameters
reduction in ankle diameter [4, 5]: 63%
reduction in hind paw weight [4, 5]: 67%
reduction in hind paw weight ([4]; semi-established mode (Days 6-24), P<0.01): 51%
reduction in ankle diameter ([4]; semi-established mode (Days 6-24), P<0.05): 34%
average dose normalized AUC0-inf ([2]; rat SD male non-fasted, 1 mg/kg p.o.): 2184 ng·kg·h/mL/mg

C[C@@H](c1ccc(Cl)cc1)[C@H]1O[C@@H](n2ccc3c(N)ncnc32)[C@H](O)[C@@H]1O [Example 5-C, (2R,3R,4S,5R)-2-(4-amino-7H-pyrrolo[2,3-d]pyrimidin-7-yl)-5-((S)-1-(4-chlorophenyl)ethyl)tetrahydrofuran-3,4-diol hydrochloride]
IC50 (PRMT5/MEP50 complex; Table 9, compounds of Formula V and Formula VI, read-out: PRTMT5/MEP50 IC50): 37 nM
